Where “and” joins values, the source holds several entries; their conditions need not be identical. Equal values may be shown once. One block for each compound: values may come before it.
Experiments:
[1] = tested on: cisplatin induced emesis in the ferret; experiment: cisplatin-induced emesis in the ferret; type: in vivo; conditions: for anti-emetic effect (in words): emesis model in the ferret, compound A 30 and 100 mg/kg, ondansetron 16 mg/kg; for Number of Emesis periods / Number of Retches / Number of Vomits: 3 h observation
Source text: The preferred model to assess an anti emetic potential in animals is the cisplatin-induced emesis in the ferret in which the effects of 5HT3A and NK1 antagonists have been thoroughly investigated. The method, which detects antiemetic activity, follows that described by Gardner et al (Brit. J. Pharmacol., 116, 3158-3163, 1995).
Sixty minutes before administration of the test substance, ferrets are placed in individual stainless steel cages (40 x 50 x 34 cm) with a grid floor. Then, the animals are challenged with cisplatin (10 mg/kg i.p.), and immediately observed over a 3-hour period for: • Number of ferrets showing retches and vomits; • Latency to first retching (h:min:s); • Latency to first vomiting (h:min:s); • Retching (number of retches); • Vomiting (number of vomits); • Number of emesis periods; • Mean duration of emesis periods (min:s); • Severe behavioral side effects. Retching is defined as a rhythmic respiratory movement against a closed glottis, while vomiting is defined as a forced expulsion of upper gastrointestinal contents.
The assay as described above was used to evaluate the anti emetic effects of melanocortin-4 receptor antagonists.
Eight ferrets were studied per group. The test substance was evaluated at two doses (30 and 100 mg/kg), administered p.o. 90 minutes before cisplatin, and compared with an appropriate vehicle control group (vehicle administered 90 minutes before cisplatin).
Quantitative data was analyzed by comparing treated groups with vehicle control using unpaired Student's t tests.
Comparison between treated groups and vehicle control was done using Mann-Whitney U tests.

MC-4 receptor = MC-4 receptor (Homo sapiens, UniProt P32245); experiment: block of the MC-4 receptor (internal finding, no method given)
[2] = group mean (8 ferrets), Compound A 30 mg/kg p.o. 1.5 h before cisplatin 10 mg/kg i.p.
[3] = group mean (8 ferrets), Compound A 100 mg/kg p.o. 1.5 h before cisplatin 10 mg/kg i.p.
[4] = individual animal, Compound A 30 mg/kg p.o. 1.5 h before cisplatin 10 mg/kg i.p.
[5] = individual animal, Compound A 100 mg/kg p.o. 1.5 h before cisplatin 10 mg/kg i.p.
[6] = group mean (8 ferrets), Ondansetron 16 mg/kg p.o. 1 h before cisplatin 10 mg/kg i.p.
[7] = individual animal, Ondansetron 16 mg/kg p.o. 1 h before cisplatin 10 mg/kg i.p.

Sequence of MC-4 receptor (P32245 whole entry): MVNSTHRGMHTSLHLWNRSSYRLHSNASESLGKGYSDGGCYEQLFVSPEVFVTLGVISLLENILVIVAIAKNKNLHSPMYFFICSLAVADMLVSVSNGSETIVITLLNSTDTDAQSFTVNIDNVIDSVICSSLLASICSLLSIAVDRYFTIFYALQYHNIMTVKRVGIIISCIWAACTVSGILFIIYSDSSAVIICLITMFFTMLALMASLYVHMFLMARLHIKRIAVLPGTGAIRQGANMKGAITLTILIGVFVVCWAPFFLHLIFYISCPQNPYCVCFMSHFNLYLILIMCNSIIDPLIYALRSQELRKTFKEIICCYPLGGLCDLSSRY

Structure (SMILES): CC[C@H](COc1cccnc1C1CCN(C(=O)[C@@H](Cc2ccc(Cl)cc2Cl)NC(=O)N2CCCC2)CC1)N1CCCC1 [Compound A]
anti-emetic effect (in words) [1]: pronounced anti-emetic properties | Number of Emesis periods [1, 2]: 6.4 | Number of Retches [1, 2]: 64.4 | Number of Vomits [1, 2]: 2.4 | Number of Emesis periods [1, 3]: 2.3 | Number of Retches [1, 3]: 19.9 | Number of Vomits [1, 3]: 0.8 | Number of Emesis periods [1, 4]: 14 and 4 and 7 and 0 (2×) and 3 and 13 and 10 | Number of Retches [1, 4]: 156 and 26 and 90 and 0 (2×) and 41 and 118 and 84 | Number of Vomits [1, 4]: 9 and 0 (3×) and 2 (2×) and 1 and 5 | Number of Emesis periods [1, 5]: 5 and 0 (4×) and 1 and 8 and 4 | Number of Retches [1, 5]: 28 and 0 (4×) and 10 and 83 and 38 | Number of Vomits [1, 5]: 2 (3×) and 0 (5×)

block of the MC-4 receptor (MC-4 receptor): doesn't block | separation between 5HT3 and MC-4 (MC-4 receptor): more than 10000 fold
Structure (SMILES): Cc1nccn1CC1CCc2c(c3ccccc3n2C)C1=O (stereo not shown) [Ondansetron, ondansetron, reference compound]
anti-emetic effect (in words) [1]: clear anti-emetic effect | Number of Emesis periods [1, 6]: 5.0 | Number of Retches [1, 6]: 41.1 | Number of Vomits [1, 6]: 1.9 | Number of Emesis periods [1, 7]: 0 (4×) and 14 (2×) and 3 and 9 | Number of Retches [1, 7]: 0 (4×) and 113 and 26 and 56 and 134 | Number of Vomits [1, 7]: 0 (5×) and 2 and 6 and 7
